These results are taken from PubChem BioAssay AID330 (DTP/NCI, 2004).

The assay deals with P388 leukemia ip, CD2F1 mice, survival T/C. As to the kind of experiment: NCI In Vivo Anticancer Drug Screen. Data for tumor model P388 Leukemia (intraperitoneal) in CD2F1 (CDF1) mice. The following applies: endpoint: median survival time, higher = longer survival. Summed up: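 Mice carrying the transplanted tumor received test compound or vehicle. Survival was recorded in each group, and the value is the treated-group measurement divided by that of the vehicle-treated control group.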

Setting [1] is: dose: 50.0 mg/kg/injection, schedule: Q01DX005 (ip), vehicle: Klucel (hydroxypropylcellulose) (HPC).
Setting [2] is: dose: 100.0 mg/kg/injection, schedule: Q01DX005 (ip), vehicle: Klucel (hydroxypropylcellulose) (HPC).
[3] abbreviates: dose: 200.0 mg/kg/injection, schedule: Q01DX005 (ip), vehicle: Klucel (hydroxypropylcellulose) (HPC).
Where [4] appears, read: dose: 60.0 mg/kg/injection, schedule: Q01DX005 (ip), vehicle: Klucel (hydroxypropylcellulose) (HPC).
The mark [5] stands for this setting: dose: 120.0 mg/kg/injection, schedule: Q01DX005 (ip), vehicle: Klucel (hydroxypropylcellulose) (HPC).
Where [6] appears, read: dose: 240.0 mg/kg/injection, schedule: Q01DX005 (ip), vehicle: Klucel (hydroxypropylcellulose) (HPC).
Where [7] appears, read: dose: 50.0 mg/kg/injection, schedule: Q01DX009 (ip), vehicle: saline with Tween-80.
The mark [8] stands for this setting: dose: 100.0 mg/kg/injection, schedule: Q01DX009 (ip), vehicle: saline with Tween-80.
Setting [9] is: dose: 100.0 mg/kg/injection, schedule: Q04DX003 (ip), vehicle: Klucel (hydroxypropylcellulose) (HPC).
[10] abbreviates: dose: 60.0 mg/kg/injection, schedule: Q01DX005 (ip), vehicle: saline with Tween-80.
The mark [11] stands for this setting: dose: 120.0 mg/kg/injection, schedule: Q01DX005 (ip), vehicle: saline with Tween-80.
The mark [12] stands for this setting: dose: 240.0 mg/kg/injection, schedule: Q01DX005 (ip), vehicle: saline with Tween-80.
[13] abbreviates: dose: 200.0 mg/kg/injection, schedule: Q01DX009 (ip), vehicle: saline with Tween-80.
[14] abbreviates: dose: 50.0 mg/kg/injection, schedule: Q01DX001 (ip), vehicle: Klucel (hydroxypropylcellulose) (HPC).
Setting [15] is: dose: 100.0 mg/kg/injection, schedule: Q01DX001 (ip), vehicle: Klucel (hydroxypropylcellulose) (HPC).
[16] abbreviates: dose: 200.0 mg/kg/injection, schedule: Q01DX001 (ip), vehicle: Klucel (hydroxypropylcellulose) (HPC).
[17] abbreviates: dose: 12.5 mg/kg/injection, schedule: Q01DX009 (ip), vehicle: water.

“And” between values parts separate entries of the source, which are not always exact repeats. Equal values may be shown once. Inconclusive results and toxic doses are left out.

For `CSCCC(NCC(=O)Nc1ccc(S(=O)(=O)c2ccc(NC(=O)CNC(CCSC)C(=O)O)cc2)cc1)C(=O)O` (stereo unspecified), the T/C under setting [1] was 100 % of control, the T/C under setting [2] was 101 % of control and the T/C under setting [3] was 101 % of control.
In the case of `CC(C)(O)c1ccccc1S(=O)c1ccccc1C(C)(C)O`, the T/C was 93 % of control (dose: 100.0 mg/kg/injection, schedule: Q01DX001 (ip), vehicle: saline with Tween-80); 95 % of control (dose: 200.0 mg/kg/injection, schedule: Q01DX001 (ip), vehicle: saline with Tween-80); 98 % of control (dose: 400.0 mg/kg/injection, schedule: Q01DX001 (ip), vehicle: saline with Tween-80).
Regarding `CN(C)C1=Nc2ccc(Cl)cc2C(c2ccccc2)=NC1O` (stereo unspecified), the T/C was 95 % of control under setting [4], 98 % of control under setting [5] and 100 % of control under setting [6].
As for `CC[N+](C)(C)c1ccc(/C=C(/C#N)C(=O)OC)cc1`, the T/C runs as follows: under setting [7], 100 % of control; under setting [8], 103 % of control.
In the case of `CC(C)C1C(=O)N(c2ccccc2)N(C)C1C` (stereo unspecified), the T/C by setting is: under setting [9], 100 % of control; (dose: 200.0 mg/kg/injection, schedule: Q04DX003 (ip), vehicle: Klucel (hydroxypropylcellulose) (HPC)) 104 % of control.
Regarding `Clc1ccc(C2=NON(c3ncccn3)C3N=CC=CN23)cc1` (stereo unspecified), the T/C under setting [10] was 87 % of control, the T/C under setting [11] is 91 % of control and the T/C under setting [12] was 99 % of control.
Consider `CCOc1ccc2[nH]c(=S)sc2c1`, for which the T/C was 100 % of control (dose: 50.0 mg/kg/injection, schedule: Q01DX009 (ip), vehicle: Klucel (hydroxypropylcellulose) (HPC)); 100 % of control (dose: 100.0 mg/kg/injection, schedule: Q01DX009 (ip), vehicle: Klucel (hydroxypropylcellulose) (HPC)); 101 % of control (dose: 200.0 mg/kg/injection, schedule: Q01DX009 (ip), vehicle: Klucel (hydroxypropylcellulose) (HPC)).
For `O=c1oc(-c2ccccc2)cc(N2CCCCC2)c1Cl`, the T/C runs as follows: under setting [7], 97 % of control; under setting [8], 97 % of control; under setting [13], 97 % of control.
For `CCSC1=C(SCC)C1SCC`, the T/C was 107 % of control (dose: 12.5 mg/kg/injection, schedule: Q04DX003 (ip), vehicle: Klucel (hydroxypropylcellulose) (HPC)); 107 % of control (dose: 25.0 mg/kg/injection, schedule: Q04DX003 (ip), vehicle: Klucel (hydroxypropylcellulose) (HPC)); 121 % of control (dose: 50.0 mg/kg/injection, schedule: Q04DX003 (ip), vehicle: Klucel (hydroxypropylcellulose) (HPC)); 113 % of control under setting [9].
Regarding `O=C(/C=C/c1ccccc1)Cc1nc2nnc(NC(=O)Nc3ccc(Cl)cc3)n2[nH]c1=O`, the T/C reads like this: under setting [10], 99 % of control; under setting [11], 94 % of control; under setting [12], 102 % of control.
As to `CC(=O)NC(CNC(C)C)C(=O)O` (stereo unspecified), the T/C by setting is: under setting [14], 102 % of control; under setting [15], 106 % of control; under setting [16], 98 % of control.
With `CC1(C)Oc2cc3oc(=O)ccc3c3c2C2C1CCC(C)(O3)C2O` (stereo unspecified), the T/C reads like this: under setting [1], 102 % of control; under setting [2], 96 % of control; under setting [3], 105 % of control.
Take `O=c1c(N=Nc2ccccc2)c(O)n(-c2ccccc2Cl)c(=S)n1-c1ccccc1`: the T/C was 97 % of control (dose: 25.0 mg/kg/injection, schedule: Q01DX001 (ip), vehicle: Klucel (hydroxypropylcellulose) (HPC)); 104 % of control under setting [14]; 92 % of control under setting [15].
As for `C1=CCC23CCCCC2(C1)CN(/N=N/N1CC24CC=CCC2(CCCC4)C1)C3` (stereo unspecified), the T/C (dose: 6.25 mg/kg/injection, schedule: Q01DX009 (ip), vehicle: Klucel (hydroxypropylcellulose) (HPC)) was 87 % of control and the T/C (dose: 12.5 mg/kg/injection, schedule: Q01DX009 (ip), vehicle: Klucel (hydroxypropylcellulose) (HPC)) is 86 % of control.
With `COc1ccc(C2NC(c3ccc(OC)cc3)C3CCCC2C3=O)cc1` (stereo unspecified), the T/C (dose: 100.0 mg/kg/injection, schedule: Q04DX003 (ip), vehicle: saline) is 102 % of control; the T/C (dose: 200.0 mg/kg/injection, schedule: Q04DX003 (ip), vehicle: saline) was 93 % of control; the T/C (dose: 400.0 mg/kg/injection, schedule: Q04DX003 (ip), vehicle: saline) is 98 % of control.
`O=C(CC1(O)C(=O)Nc2ccccc21)c1cccc([N+](=O)[O-])c1` (stereo unspecified): the T/C under setting [4] was 97 % of control, the T/C under setting [5] was 103 % of control and the T/C under setting [6] is 99 % of control.
Take `OC1(Cc2ccc(F)cc2)CCCCCC1`: the T/C was 102 % of control under setting [1], 105 % of control under setting [2] and 103 % of control under setting [3].
Regarding `COc1ccc(C2=NCCc3cc(OC)c(OC)cc32)cc1OC`, the T/C runs as follows: (dose: 6.25 mg/kg/injection, schedule: Q01DX009 (ip), vehicle: water) 111 % of control; under setting [17], 108 % of control; (dose: 25.0 mg/kg/injection, schedule: Q01DX009 (ip), vehicle: water) 118 % of control; (dose: 50.0 mg/kg/injection, schedule: Q01DX009 (ip), vehicle: water) 105 % of control; (dose: 100.0 mg/kg/injection, schedule: Q01DX009 (ip), vehicle: water) 111 % of control.
As for `C[CH2][Sn]1([CH2]C)[O]C(=O)CCCCC(=O)[O]1`, for the setting “dose: 12.5 mg/kg/injection, schedule: Q04DX003 (ip), vehicle: saline”, the T/C is 115 % of control.
Regarding `COc1ccc(N=Nc2c(-c3cccs3)nn(C(N)=S)c2C(F)(F)F)cc1`, the T/C is 97 % of control under setting [1], 95 % of control under setting [2] and 97 % of control under setting [3].
For `C=CC12COC(=O)C(=C)C1C1OC(=O)C(=C)C1CC2O` (stereo unspecified), the T/C (dose: 0.75 mg/kg/injection, schedule: Q01DX009 (ip), vehicle: saline) is 120 % of control; the T/C (dose: 1.5 mg/kg/injection, schedule: Q01DX009 (ip), vehicle: saline) is 123 % of control; the T/C (dose: 3.0 mg/kg/injection, schedule: Q01DX009 (ip), vehicle: saline) is 118 % of control; the T/C (dose: 6.0 mg/kg/injection, schedule: Q01DX009 (ip), vehicle: saline) is 120 % of control.
With `COC1=C(C)C(=O)c2c(c(C=O)c(Cl)n2C)C1=O`, the T/C is 99 % of control under setting [15] and 103 % of control under setting [16].
With `O=c1[nH]c2c([N+](=O)[O-])cc(Cl)cc2nc1/C=C(\O)c1ccncc1`, the T/C under setting [4] was 102 % of control and the T/C under setting [5] is 99 % of control.
Regarding `O=NNc1ncccc1OCc1ccccc1`, the T/C under setting [17] was 111 % of control and 112 % of control.
For the compound `COCN(C)N=Nc1ccc(C#N)cc1`, the T/C by setting is: under setting [4], 100 % of control; under setting [5], 117 % of control; under setting [6], 117 % of control.
As to `ON=C1c2cc(Cl)ccc2-c2ccc(Cl)cc21`, the T/C reads like this: (dose: 6.25 mg/kg/injection, schedule: Q01DX009 (ip), vehicle: saline) 100 % of control; (dose: 12.5 mg/kg/injection, schedule: Q01DX009 (ip), vehicle: saline) 97 % of control; (dose: 25.0 mg/kg/injection, schedule: Q01DX009 (ip), vehicle: saline) 94 % of control; (dose: 50.0 mg/kg/injection, schedule: Q01DX009 (ip), vehicle: saline) 90 % of control.
For the compound `CN(C)c1nc(N(C)C)nc([N+]23CN4CN(CN(C4)C2)C3)n1`, the T/C is 114 % of control under setting [7], 108 % of control under setting [8] and 114 % of control under setting [13].
With `Nc1nc(=S)c2ncn(C3OC(CO)CC3O)c2[nH]1` (stereo unspecified), the T/C runs as follows: (dose: 26.4 mg/kg/injection, schedule: Q04DX003 (ip), vehicle: saline) 122 % of control; (dose: 150.0 mg/kg/injection, schedule: Q04DX003 (ip), vehicle: saline) 116 % of control.
Turning to `CC1(CCl)COP(=O)(NN)OC1` (stereo unspecified), the T/C runs as follows: (dose: 60.0 mg/kg/injection, schedule: Q01DX005 (ip), vehicle: saline) 101 % of control; (dose: 120.0 mg/kg/injection, schedule: Q01DX005 (ip), vehicle: saline) 102 % of control.
